One test relates to HIV-IIIb. The test can be described thus: Antiviral assay in MT4 cells. Format: cell-based. As to conditions: Human immunodeficiency virus 1, IIIB, MT4, 120 h, MT4 cells infected with HIV-IIIb, 5 days, CellTiter-Glo; read-out: EC50 nM in MT-4. The method, then:
For the antiviral assay utilizing MT4 cells, 0.4 μL of 189X test concentration of 3-fold serially diluted compound in DMSO was added to 40 μL of cell growth medium (RPMI 1640, 10% FBS, 1% penicilline/Streptomycine, 1% L-Glutamine, 1% HEPES) in each well of 384-well assay plates (10 concentrations) in quidruplicate.
1 mL aliquots of 2×10^6 MT4 cells are pre-infected for 1 and 3 hours respectively at 37° C. with 25 μL (MT4) or of either cell growth medium (mock-infected) or a fresh 1:250 dilution of an HIV-IIIb concentrated ABI stock (0.004 m.o.i. for MT4 cells). Infected and uninfected cells are diluted in cell growth medium and 35 μL of 2000 (for MT4) cells is added to each well of the assay plates.
Assay plates were then incubated in a 37° C. incubator. After 5 days of incubation, 25 μL of 2× concentrated CellTiter-Glo™ Reagent (catalog # G7573, Promega Biosciences, Inc., Madison, Wis.) was added to each well of the assay plate. Cell lysis was carried out by incubating at room temperature for 2-3 minutes, and then chemiluminescence was read using the Envision reader (PerkinElmer).
Usually EC50 stands for the midpoint of the concentration-response curve. Take `O=C(NCc1ccc(F)cc1OC1CC1)c1cn2c(c(O)c1=O)C(=O)N1[C@@H]3CC[C@@H](C3)O[C@H]1C2` [Compound 52, (2S,5R,13aS)—N-(2-cyclopropoxy-4-fluorobenzyl)-8-hydroxy-7,9-dioxo-2,3,4,5,7,9,13,13a-octahydro-2,5-methanopyrido[1%2′: 4,5]pyrazino[2,1-b][1,3]oxazepine-10-carboxamide]: the EC50 turned out to be 15 nM. As for `O=C(NCc1c(F)cc(F)cc1F)c1cn2c(c(O)c1=O)C(=O)N1[C@H]3CC[C@H](C3)[C@@H]1C2` [Compound 41, (1R,4S,12aR)-7-hydroxy-6,8-dioxo-N-(2,4,6-trifluorobenzyl)-1,2,3,4,6,8,12,12a-octahydro-1,4-methanodipyrido[1,2-a:1′,2′-d]pyrazine-9-carboxamide], the EC50 stood at 2.1 nM. The same measure, in the same setting: then `O=C(NCc1c(F)cc(F)cc1Cl)c1cn2c(c(O)c1=O)C(=O)N1[C@H]3CC[C@H](C3)[C@@H]1C2` [Compound 93, (1R,4S,12aR)—N-(2-chloro-4,6-difluorobenzyl)-7-hydroxy-6,8-dioxo-1,2,3,4,6,8,12,12a-octahydro-1,4-methanodipyrido[1,2-a:1′,2′-d]pyrazine-9-carboxamide], with 2.2 nM; and `O=C(NCc1ccc(F)cc1F)c1cn2c(c(O)c1=O)C(=O)N1C(C2)[N@@]2CC[C@@H]1C2` (stereo partly drawn) [Compound 4, (1S,4R)—N-(2,4-difluorobenzyl)-7-hydroxy-6,8-dioxo-3,4,6,8,12,12a-hexahydro-2H-1,4-methanopyrido[1′,2′:4,5]pyrazino[1,2-a]pyrimidine-9-carboxamide], with 14.8 nM; and `O=C(NCc1ccc(Cl)cc1F)c1cn2c(c(O)c1=O)C(=O)N1[C@H]3CC[C@H](C3)[C@@H]1C2` [Compound 92, (1R,4S,12aR)—N-(4-chloro-2-fluorobenzyl)-7-hydroxy-6,8-dioxo-1,2,3,4,6,8,12,12a-octahydro-1,4-methanodipyrido[1,2-a:1′,2′-d]pyrazine-9-carboxamide], with 18.6 nM. `O=C(NCc1ncccc1C(F)(F)F)c1cn2c(c(O)c1=O)C(=O)N1[C@@H]3CC[C@@H](C3)O[C@H]1C2` [Compound 49, (2 S,5R,13aS)-8-hydroxy-7,9-dioxo-N-((3-(trifluoromethyl)pyridin-2-yl)methyl)-2,3,4,5,7,9,13,13a-octahydro-2,5-methanopyrido[1%2′: 4,5]pyrazino[2,1-b][1,3]oxazepine-10-carboxamide]: the EC50 turned out to be 33.3 nM. `O=C(NCc1cc(F)ccc1F)c1cn2c(c(O)c1=O)C(=O)N1[C@H]3CC[C@H](C3)O[C@@H]1C2` [Compound 89, (2R,5S,13aR)—N-(2,5-difluorobenzyl)-8-hydroxy-7,9-dioxo-2,3,4,5,7,9,13,13a-octahydro-2,5-methanopyrido[1′,2′:4,5]pyrazino[2,1-b][1,3]oxazepine-10-carboxamide]: the EC50 was found to be 8.4 nM. For the molecule `O=C(NCc1cccc(F)c1F)c1cn2c(c(O)c1=O)C(=O)N1[C@@H]3CC[C@@H](C3)O[C@H]1C2` [Compound 16, (2S,5R,13aS)—N-(2,3-difluorobenzyl)-8-hydroxy-7,9-dioxo-2,3,4,5,7,9,13,13a-octahydro-2,5-methanopyrido[1′,2′:4,5]pyrazino[2,1-b][1,3]oxazepine-10-carboxamide], the 50% effective concentration (EC50) came to 1.5 nM. Still for that read-out and setting: with `O=C(NCc1c(F)cccc1F)c1cn2c(c(O)c1=O)C(=O)N1[C@@H]3CC[C@@H](C3)O[C@H]1C2` [Compound 46, (13aS)—N-(2,6-difluorobenzyl)-8-hydroxy-7,9-dioxo-2,3,4,5,7,9,13,13a-octahydro-2,5-methanopyrido[1′,2′:4,5]pyrazino[2,1-b][1,3]oxazepine-10-carboxamide] the figure was 2.6 nM; with `O=C(NCc1ccc(F)cc1F)c1cn2c(c(O)c1=O)C(=O)N1C(C2)O[C@H]2CCC[C@@H]1C2` (stereo partly drawn) [Compound 7, (2S,6R)—N-(2,4-difluorobenzyl)-9-hydroxy-8,10-dioxo-3,4,5,6,8,10,14,14a-octahydro-2H-2,6-methanopyrido[1′,2′:4,5]pyrazino[2,1-b][1,3]oxazocine-11-carboxamide], 3.5 nM.

For `O=C(NC1(c2ccc(F)cc2F)CC1)c1cn2c(c(O)c1=O)C(=O)N1C(C2)O[C@H]2CCC[C@@H]1C2` (stereo partly drawn) [Compound 28, (2 S,6R)—N-(1-(2,4-difluorophenyl)cyclopropyl)-9-hydroxy-8,10-dioxo-3,4,5,6,8,10,14,14a-octahydro-2H-2,6-methanopyrido[1′,2′:4,5]pyrazino[2,1-b][1,3]oxazocine-11-carboxamide], the EC50 came to 15.6 nM. Turning to `O=C(NCc1c(F)cc(F)cc1F)c1cn2c(c(O)c1=O)C(=O)N1[C@H]3CCC[C@H](C3)[C@H]1C2` [Compound 85, (6 aS,7R,11S)-1-hydroxy-2,13-dioxo-N-(2,4,6-trifluorobenzyl)-6,6a,7,8,9,10,11,13-octahydro-2H-7,11-methanopyrido[1′,2′: 4,5]pyrazino[1,2-a]azepine-3-carboxamide], the EC50 came out at 2 nM. The same measure, in the same setting: then `O=C(NCc1ccc(F)cc1F)c1cn2c(c(O)c1=O)C(=O)N1[C@H]3CC[C@H](C3)O[C@@H]1C2` [Compound 2, (2R,5S,13aR)—N-(2,4-difluorobenzyl)-8-hydroxy-7,9-dioxo-2,3,4,5,7,9,13,13a-octahydro-2,5-methanopyrido[1′,2′:4,5]pyrazino[2,1-b][1,3]oxazepine-10-carboxamide], with 2.2 nM; and `O=C(NCc1ccc(F)c(C(F)(F)F)c1)c1cn2c(c(O)c1=O)C(=O)N1[C@@H]3CC[C@@H](C3)O[C@H]1C2` [Compound 25, (2S,5R,13aS)—N-(4-fluoro-3-(trifluoromethyl)benzyl)-8-hydroxy-7,9-dioxo-2,3,4,5,7,9,13,13a-octahydro-2,5-methanopyrido[1′,2′:4,5]pyrazino[2,1-b][1,3]oxazepine-10-carboxamide], with 26.2 nM. `O=C(NCc1cc(F)cc(F)c1)c1cn2c(c(O)c1=O)C(=O)N1[C@@H]3CC[C@@H](C3)O[C@H]1C2` [Compound 24, (2 S,5R,13aS)—N-(3,5-difluorobenzyl)-8-hydroxy-7,9-dioxo-2,3,4,5,7,9,13,13a-octahydro-2,5-methanopyrido[1′,2′: 4,5]pyrazino[2,1-b][1,3]oxazepine-10-carboxamide]: the EC50 came to 6.1 nM.

As for `O=C(NCc1ccc(F)c(F)c1)c1cn2c(c(O)c1=O)C(=O)N1[C@H]3CC[C@H](C3)[C@@H]1C2` [Compound 66, (1R,4S,12aR)—N-(3,4-difluorobenzyl)-7-hydroxy-6,8-dioxo-1,2,3,4,6,8,12,12a-octahydro-1,4-methanodipyrido[1,2-a:1′,2′-d]pyrazine-9-carboxamide], the EC50 came to 9.4 nM.

The same test, now with this note: Human immunodeficiency virus 1, IIIB, MT4, 120 h, read-out: EC50 nM in MT-4, MT4 cells infected with HIV-IIIb, 5 days, CellTiter-Glo.
With `O=C(NCc1ccc(F)cc1Cl)c1cn2c(c(O)c1=O)C(=O)N1[C@H]3CC[C@H](C3)O[C@@H]1C2` [Compound 63, (2R,5S,13aR)—N-(2-chloro-4-fluorobenzyl)-8-hydroxy-7,9-dioxo-2,3,4,5,7,9,13,13a-octahydro-2,5-methanopyrido[1′,2′:4,5]pyrazino[2,1-b][1,3]oxazepine-10-carboxamide], the EC50 was determined as 2.5 nM. In the case of `O=C(NCc1ccc(F)cc1F)c1cn2c(c(O)c1=O)C(=O)N1[C@H]3CC[C@H](C3)[C@@H]1C2` [Compound 47, (1R,4S,12aR)—N-(2,4-difluorobenzyl)-7-hydroxy-6,8-dioxo-1,2,3,4,6,8,12,12a-octahydro-1,4-methanodipyrido[1,2-a:1′,2′-d]pyrazine-9-carboxamide], the concentration for a half-maximal effect (EC50) is 1.9 nM.
